Measured values as given in patent US5177223A, “Indoleacetic acid derivatives, process for their preparation, and medicines containing same as active ingredients” (Zeria Pharmaceutical Co., Ltd., priority 1988, dated 1993).
Values joined by “and” are separate entries in the source; they are usually repeats but may differ in a detail not shown here. Equal entries are not always repeated. Structures can show the parent of a compound that is named as a salt. Where two headings read alike, the source gives them in different places.

What was measured:
gastric-acid secretion = assay: Test of Inhibition of Gastric-Acid Secretion by Histamine Stimulation; type: in vivo, Male SD rats; settings: rat
Experimental: Test of Inhibition of Gastric-Acid Secretion by Histamine Stimulation
A feeding tube (fr. 3.5) for injecting test medicines was inserted into the duodenum, and the pylorus was ligatured. A polyethylene tube (inner diameter: 7 mm) was used in the anterior stomach and gastric fistula was performed. After washing the inside of the stomach with heated physiological salt solution (37° C.) several times, the body was closed. A tube with a fin was inserted into the caudal vein and was fastened with a tape and it was connected to a infusion pump (Harvard). The rats were enclosed in a KN Ballman II cage (Natsume Seisakusho). Gastric juice flowed from the fistula was collected with a messcylinder every one hour. Starting from one hour after the operation, histamine was continuously injected at a rate of 1.4 ml/hour through the caudal vein. Then, test compounds suspended in 0.5% sodium caboxy methyl cellulose (Na-CMC) were administered one hour after the start of the histamine injection. The gastric juice thus extracted in a period from one hour after the administration of the chemical to four hours after that was titrated by using an automatic titration apparatus (Kyoto Electronic) with 0.1N NaOH to adjust pH 7, and the quantity of the gastric juice was measured to obtain the total acid output.

[1] = test system: carrageenin plantar edema; assay: Test of Carrageenin Plantar Edema; type: in vivo, Male Wistar rats; settings: for inhibition rate at the peak compared with that of indomethacin: 84.0 μmol/kg; for inhibition rate at the peak compared with that of indomethacin / ED50 value relative to that of indomethacin: compared with indomethacin; for ED50: read-out: Carrageenin edema ED50
Experimental: Test of Carrageenin Plantar Edema
After the body weight of each rat had been measured, the volume of the right hind-leg of the rat was measured by using an apparatus for measuring plantar volumes. The rats were then divided into groups so that the groups have the same body weight average and plantar volume average. A test compound was suspended in an aqueous solution of 5% tragacanth gum and then orally administered to each of the rats. 0.1 ml of a physiological saline of 1% carrageenin was hypodarmically injected into the sole of the right hind-leg of each rat. The volume was measured for each rat every 1 hour for 5 hours. An edema rate was determined by using a rate of increase in the volume measured after treatment to the volume measured before treatment.

gastric mucosa = assay: Test of Injury to Gastric Mucosa; type: in vivo, Male Wistar rats; set-up: key to Ulcer Index: ulcer index determined by the Munchow method; settings: oral, rat; for Ulcer Index / Ulcer occurrence (%): 5 hours; for degree of injury to the gastric mucosa: as compared with indomethacin
Experimental: Test of Injury to Gastric Mucosa
Male Wistar rats each having a body weight of about 180 to 200 g were divided into groups consisting of 10 rats and were fasted for 24 hours. After body weight of each rat has been measured, a test compound was suspended in an aqueous solution of 5% tragacanth gum and then orally administered to each rat. The rats were fasted again, and after 5 hours had passed, they were killed by cervical dislocation. A 1% formalin solution was injected into the gastric cavity of each of the rats so that it was semifixed. The gaster of each rat was cut along the greater curvature of the stomach, and the ulcer index of each rat was measured under a stereoscopic microscope and determined by the Munchow method. The Mann-Whitney U-test was applied to the statistic data processing.

ICR male mice = assay: Acute Toxicity Test; type: in vivo; settings: oral, single dose 25, 50 and 75 mg/kg each
Experimental: A test compound was suspended in an aqueous solution of 5% gum arabic and then orally administered to each of 4 to 5-week old ICR male mice (Charles River Co., Ltd.) each having a body weight of 22 to 30 g in each group consisting of 3 to 4 mice, once in each of doses 25, 50, 75, 200 and 500 mg/kg.

[2] = oral, rat, dose 8.4 μmol/kg (Example 2 6.4, Example 5 6.9, indomethacin 3.0 mg/kg)
[3] = oral, rat, dose 84.0 μmol/kg (Example 2 64.0, Example 5 69.0, indomethacin 30.0 mg/kg)
[4] = dose 25.2 μmol/kg (Example 2 19.2 mg/kg)
[5] = dose 84.0 μmol/kg (Example 2 64.0, Example 5 69.0, indomethacin 30.0 mg/kg)
[6] = dose 84.0 μmol/kg (Example 2 64.0, Example 5 69.0, indomethacin 30.0 mg/kg), ** p < 0.01
[7] = oral, rat, dose 28.0 μmol/kg (Example 5 23.0, indomethacin 10.0 mg/kg)
[8] = dose 28.0 μmol/kg (Example 5 23.0, indomethacin 10.0 mg/kg)
[9] = dose 28.0 μmol/kg (Example 5 23.0, indomethacin 10.0 mg/kg), ** p < 0.01

With CN/C(=N/CCSCc1nc[nH]c1C)NC#N [Cimetidine, reference compound] the “Gastric-acid secretion inhibition rate (%)” value (gastric-acid secretion; dose 30 mg/kg) was 32.3%.

For COc1ccc2c(c1)c(CC(=O)OCC(=O)NCCCOc1cccc(CN3CCCCC3)c1)c(C)n2C(=O)c1ccc(Cl)cc1 [Example 2, N-[3-[3-(piperidinomethyl)phenoxy]propyl]carbamoylmethyl 1-(4-chlorobenzoyl)-5-methoxy-2-methyl-3-indolylacetate maleate], the “inhibition rate at the peak compared with that of indomethacin” value ([1]; oral, rat) was “slightly higher”, the “Carrageenin edema inhibition (%) rate at peak” value [1, 2] was 34.9% and the “Carrageenin edema inhibition (%) rate at peak” value ([1]; oral, rat, dose 25.2 μmol/kg (Example 2 19.2 mg/kg)) was 50.4%. For the same molecule, the “Carrageenin edema inhibition (%) rate at peak” value [1, 3] was 62.6%, the “ED50 value relative to that of indomethacin” value ([1]; oral, rat) was “substantially the same” and the ED50 ([1]; oral, rat) was 27.8 µmol/kg and 21.1 mg/kg. The “Ulcer Index” value (gastric mucosa; [4]) was 1.3 ± 0.63, the “Ulcer occurrence (%)” value (gastric mucosa; [4]) was 0% and the “Ulcer occurrence (%)” value (gastric mucosa; [5]) was 14%. For the same molecule, the “Ulcer Index” value (gastric mucosa; [6]) was 5.9 ± 4.92, the “Ulcer occurrence (%)” value (gastric mucosa; dose 251.9 μmol/kg (Example 2 192.0 mg/kg)) was 40% and the “Ulcer Index” value (gastric mucosa; dose 251.9 μmol/kg (Example 2 192.0 mg/kg), * p < 0.05) was 17.5 ± 15.84. The “degree of injury to the gastric mucosa” value (gastric mucosa) was “extremely low degree of injury”.

With COc1ccc2c(c1)c(CC(=O)OCCSCC(=O)NCCCOc1cccc(CN3CCCCC3)c1)c(C)n2C(=O)c1ccc(Cl)cc1 [Example 5, 2-[N-[3-[3-(piperidinomethyl)phenoxy]propyl]carbamoylmethylthio]ethyl 1-(4-chlorobenzoyl)-5-methoxy-2-methyl-3-indolylacetate maleate] the “Gastric-acid secretion inhibition rate (%)” value (gastric-acid secretion; dose 22 mg/kg) was 47.4%, the “Gastric-acid secretion inhibition rate (%)” value (gastric-acid secretion; dose 44 mg/kg) was 74.1% and the “inhibition rate at the peak compared with that of indomethacin” value ([1]; oral, rat) was “slightly higher”. The “Carrageenin edema inhibition (%) rate at peak” value [1, 2] was 19.1%, the “Carrageenin edema inhibition (%) rate at peak” value [1, 7] was 41.2% and the “Carrageenin edema inhibition (%) rate at peak” value [1, 3] was 68.4%. For the same molecule, the “Carrageenin edema inhibition (%) rate at peak” value ([1]; oral, rat, dose 280.0 μmol/kg (Example 5 230.0 mg/kg)) was 72.7%, the “ED50 value relative to that of indomethacin” value ([1]; oral, rat) was “about 2 times” and the ED50 ([1]; oral, rat) was 47.8 µmol/kg and 39.3 mg/kg. The “Ulcer occurrence (%)” value (gastric mucosa; [8]) was 0%, the “Ulcer Index” value (gastric mucosa; [9]) was 0.1 ± 0.01 and the “Ulcer occurrence (%)” value (gastric mucosa; [5]) was 0%. The “Ulcer Index” value (gastric mucosa; [6]) was 0.0 ± 0.00, the “Ulcer Index” value (gastric mucosa; dose 280.0 μmol/kg (Example 5 230.0 mg/kg)) was 0.0 ± 0.00 and the “degree of injury to the gastric mucosa” value (gastric mucosa) was “extremely low degree of injury”.

With COc1ccc2c(c1)c(CC(=O)O)c(C)n2C(=O)c1ccc(Cl)cc1 [Indomethacin, indomethacin, reference compound] the ED50 ([1]; Rattus norvegicus, po) was 20.6 µmol/kg and 7.4 mg/kg, the “Carrageenin edema inhibition (%) rate at peak” value ([1]; oral, rat, dose 2.8 μmol/kg (indomethacin 1.0 mg/kg)) was 24.6% and the “Carrageenin edema inhibition (%) rate at peak” value [1, 2] was 49.8%. For the same molecule, the “Carrageenin edema inhibition (%) rate at peak” value [1, 7] was 59.4%, the “Carrageenin edema inhibition (%) rate at peak” value [1, 3] was 55.9% and the death of mice (ICR male mice) was “all the mice in the groups, to which 25, 50 and 75 mg/kg of indomethacin were respectively administered, died”. The “Ulcer occurrence (%)” value (gastric mucosa; [8]) was 70%, the “Ulcer Index” value (gastric mucosa; [9]) was 46.5 ± 15.00 and the “Ulcer occurrence (%)” value (gastric mucosa; dose 56.0 μmol/kg (indomethacin 20.0 mg/kg)) was 70%. The “Ulcer Index” value (gastric mucosa; dose 56.0 μmol/kg (indomethacin 20.0 mg/kg), ** p < 0.01) was 52.8 ± 17.47, the “Ulcer occurrence (%)” value (gastric mucosa; [5]) was 80% and the “Ulcer Index” value (gastric mucosa; [6]) was 62.1 ± 16.50.
